Results reported in ChEMBL document CHEMBL5316284, “Structural Determinants of Indole-2-carboxamides: Identification of Lead Acetamides with Pan Antimycobacterial Activity” (J Med Chem, 2023).
Values after ≈ are worked out from the molar mass of the structure shown. Active and inactive are the calls of the source. The calls are words filed in the database; no cut-off is given here.

Experiments:
[1] = Kinetic solubility of compound at pH 7.4 incubated for 6 hrs by LC-MS/MS analysis; assay type: physicochemical; conditions: buffer, read-out: Kinetic_solubility
[2] = Metabolic stability in mouse liver S9 fraction assessed as parent compound remaining at 5 ug/ml after 90 mins in presence of NADPH by LC/MS analysis; assay type: ADME, subcellular; conditions: s9, 1.5 h, dose 5 µg/ml
[3] = Plasma protein binding in human at 10 ug/ml incubated for 4 hrs under shaking condition by LC/MS/MS analysis; assay type: ADME, cell-free; conditions: at 10 µg/mL, read-out: PPB (converted)
[4] = tested on: Mycobacteroides abscessus; assay: Antimycobacterial activity against Mycobacterium abscessus […] assessed as inhibition of mycolic acid biosynthesis at 1 to 10 times of MIC incubated for 3 hrs in presence of [1,2-14C]-acetate by TLC analysis; assay type: functional, organism-based
[5] = tested on: Mycobacteroides abscessus; assay: Antimycobacterial activity against Mycobacterium abscessus ATCC 19977 harbouring mmpL3 A309P mutant gene assessed as inhibition of bacterial growth by visual analysis; assay type: functional
[6] = tested on: Mycobacteroides abscessus; assay: Antimycobacterial activity against Mycobacterium abscessus ATCC 19977 harbouring mmpL3 L551S mutant gene assessed as inhibition of bacterial growth by visual analysis; assay type: functional
[7] = Binding affinity to Mycobacterium tuberculosis MmpL3 assessed as equilibrium constant by SPR analysis
[8] = Cytotoxicity against mouse HEI-OC1 cells assessed as viable cells upto 100 uM measured after 72 hrs by MTT assay; assay type: toxicity, cell-based; conditions: hei-oc1, 72 h
[9] = tested on: Mycobacteroides abscessus; assay: Antimycobacterial activity against Mycobacterium abscessus […] assessed as decrease in mycolic acid transfer onto cell wall arabinogalactan incubated for 3 hrs in presence of [1,2-14C]-acetate by TLC analysis; assay type: functional, organism-based
[10] = tested on: Mycobacteroides abscessus; assay: Antimycobacterial activity against Mycobacterium abscessus ATCC 19977 harbouring wild type mmpL3 gene assessed as inhibition of bacterial growth by visual analysis; assay type: functional
[11] = Binding affinity to Mycobacterium tuberculosis MmpL3 assessed as dissociation constant by SPR analysis
Mycobacterium kansasii = assay: Antimycobacterial activity against Mycobacterium kansasii ATCC 1279 assessed as inhibition of bacterial growth by visual analysis; assay type: functional
[12] = tested on: Mycobacterium intracellulare; assay: Antimycobacterial activity against Mycobacterium intracellulare 1956 assessed as inhibition of bacterial growth by visual analysis; assay type: functional
Mycobacteroides chelonae = assay: Antimycobacterial activity against Mycobacteroides chelonae ATCC 35752 assessed as inhibition of bacterial growth by visual analysis; assay type: functional
[13] = Cytotoxicity against human WI26VA4 cells assessed as inhibition of cell growth measured after 72 hrs by MTT assay; assay type: toxicity, cell-based
[14] = tested on: Mycolicibacterium fortuitum; assay: Antimycobacterial activity against Mycobacterium fortuitum ATCC 6841 assessed as inhibition of bacterial growth by visual analysis; assay type: functional
[15] = Permeability of the compound by PAMPA method; assay type: ADME
[16] = tested on: Mycobacteroides abscessus; assay: Antimycobacterial activity against Mycobacterium abscessus […] assessed as decrease in mycolic acid transfer onto cell wall trehalose dimycolate incubated for 3 hrs in presence of [1,2-14C]-acetate by TLC analysis; assay type: functional, organism-based
[17] = Antimycobacterial activity against Mycobacterium avium subsp. avium 2585R assessed as inhibition of bacterial growth by visual analysis; assay type: functional
[18] = tested on: Mycobacterium intracellulare subsp. chimaera; assay: Antimycobacterial activity against Mycobacterium intracellulare subsp. chimaera 1501948 assessed as inhibition of bacterial growth by visual analysis; assay type: functional
[19] = Selectivity index, ratio of IC50 for Cytotoxicity against human WI26VA4 cells to MIC for antimycobacterial activity against Mycobacterium tuberculosis H37Rv mc2 6206; assay type: toxicity, cell-based; conditions: read-out: Selectivity Index
[20] = Metabolic stability in human liver S9 fraction assessed as parent compound remaining at 5 ug/ml after 90 mins in presence of NADPH by LC/MS analysis; assay type: ADME, subcellular; conditions: s9, 1.5 h, dose 5 µg/ml
[21] = tested on: Mycobacterium tuberculosis; assay: Antimycobacterial activity against Mycobacterium tuberculosis H37Rv mc2 6206 assessed as inhibition of bacterial growth measured after 7 days by visual analysis; assay type: functional; conditions: H37Rv mc2 6206, 168 h, time 7 day
[22] = tested on: Mycobacterium tuberculosis; assay: Displacement of North 114 from Mycobacterium tuberculosis wild type MmpL3 expressed in Mycobacterium smegmatis upto 8 uM incubated for 15 mins by flow cytometry based competition binding assay
[23] = Selectivity index, ratio of IC50 for Cytotoxicity against human WI26VA4 cells to MIC for antimycobacterial activity against Mycobacterium abscessus […]; assay type: toxicity, cell-based; conditions: read-out: Selectivity Index
[24] = tested on: Mycobacteroides abscessus; assay: Antimycobacterial activity against Mycobacterium Mycobacterium abscessus ATCC 19977 harbouring mmpL3 I306S mutant gene assessed as inhibition of bacterial growth by visual analysis; assay type: functional
THP-1 = assay: Cytotoxicity against human THP-1 cells assessed as inhibition of cell growth measured after 72 hrs by MTT assay; assay type: toxicity, cell-based
[25] = tested on: Mycobacteroides abscessus; assay: Antimycobacterial activity against Mycobacterium abscessus […] assessed as inhibition of bacterial growth measured after 5 days by visual analysis; assay type: functional; conditions: 120 h, time 5 day
[26] = Cytotoxicity against mouse HEI-OC1 cells assessed as inhibition of cell growth measured after 72 hrs by MTT assay; assay type: toxicity, cell-based

Row | SMILES | solubility kinetic at 6 h [1] [µg/mL] | t1/2 [2] [min] | fraction unbound at 4 h, 10 ug/ml [3] | Activity [4] | MIC [5] [µg/mL] | MIC [6] [µg/mL] | Kd [7] [µM] | Activity [9] | MIC [10] [µg/mL] | Kd [11] [s⁻¹] | MIC (Mycobacterium kansasii) [µg/mL] | MIC [12] [µg/mL] | MIC (Mycobacteroides chelonae) [µg/mL] | IC50 [13] [µg/mL] | permeability [15] | selectivity ratio [19] | t1/2 [20] [min] | MIC [21] [µg/mL] | selectivity ratio [23] | MIC [24] [µg/mL] | further results
1 | O=C(CNc1cccc(OC(F)(F)F)c1)NC12CC3CC(CC(C3)C1)C2 | 20.4 (≈ 55.4 µM) | 24 | 0.051 | inactive | > 64 | 0.5 (≈ 1.36 µM) | 780 | Active | 0.5 (≈ 1.36 µM) | 1.23 | 8 (≈ 21.7 µM) | 8 (≈ 21.7 µM) | 4 (≈ 10.9 µM) | > 20 | 3.61 10^-6 cm/s | > 80 | 42 | 0.25 (≈ 0.679 µM) | > 40 | 1 (≈ 2.71 µM) | Activity [8]: 70.8%; MIC [14]: 2 µg/mL (≈ 5.43 µM); Activity [16]: Active; MIC [17]: 8 µg/mL (≈ 21.7 µM); MIC [18]: 16 µg/mL (≈ 43.4 µM); Activity [22]: Active
2 | Cc1cc(C)c2cc(C(=O)NC3CCCCCCC3)[nH]c2c1 | 1.6 (≈ 5.36 µM) | – | 0.018 | – | – | – | – | – | – | – | – | – | – | – | 0.18 10^-6 cm/s | > 764 | 30 | 0.02 (≈ 0.067 µM) | > 237 | – | IC50 (THP-1): > 14.9 µg/mL; MIC [25]: 0.063 µg/mL (≈ 0.211 µM)
3 | CC[C@H]1OC(=O)[C@H](C)[C@@H](O[C@H]2C[C@@](C)(OC)[C@@H](O)[C@H](C)O2)[C@H](C)[C@@H](O[C@@H]2O[C@H](C)C[C@H](N(C)C)[C@H]2O)[C@](C)(OC)C[C@@H](C)C(=O)[C@H](C)[C@@H](O)[C@]1(C)O [CLARITHROMYCIN] | – | – | – | – | 4 (≈ 5.35 µM) | 8 (≈ 10.7 µM) | – | – | – | – | – | – | – | – | – | – | – | – | – | 4 (≈ 5.35 µM) | –
4 | C[C@@H]1[C@H]2C[C@@H](C[C@H]1NC(=O)CNc1cccc(Cl)c1)C2(C)C | 16.3 (≈ 50.8 µM) | 276 | 0.059 | inactive | > 64 | 0.5 (≈ 1.56 µM) | 800 | Active | 0.5 (≈ 1.56 µM) | 1.22 | 8 (≈ 24.9 µM) | 8 (≈ 24.9 µM) | 4 (≈ 12.5 µM) | > 20 | 1.33 10^-6 cm/s | > 80 | 318 | 0.25 (≈ 0.779 µM) | > 40 | 1 (≈ 3.12 µM) | IC50 at 72 h [26]: 14.1 µM; MIC [14]: 2 µg/mL (≈ 6.23 µM); Activity [16]: Active; MIC [17]: 8 µg/mL (≈ 24.9 µM); MIC [18]: 16 µg/mL (≈ 49.9 µM); Activity [22]: Active
